The subject of assay [1] is MCF10A (GM). Description: area over the GR curve, 72 h; higher = more effect.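 Note: Dye Drop or Deep Dye Drop imaging of viable cells in 384-well plates (Hoechst nuclei, LIVE/DEAD dye), nine half-log doses, GR normalized to DMSO controls and time-zero plates.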
Assay [2] has as its system PDX1206. The assay is described as follows: area over the GR curve, 72 h; higher = more effect.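 Note: Dye Drop or Deep Dye Drop imaging of viable cells in 384-well plates (Hoechst nuclei, LIVE/DEAD dye), nine half-log doses, GR normalized to DMSO controls and time-zero plates.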

As for `CN(C)C/C=C/C(=O)Nc1ccc(O[C@@H]2CCC[C@@H](Nc3ncc(Cl)c(-c4c[nH]c5ccccc45)n3)C2)cc1` [BSJ-01-175] (max 10 µM), the results for the “area over the GR curve” value in assay [1] and in assay [2] were 0.326 GR and 0.9 GR, respectively.

Take `CN1CCN(C(=O)c2ccc3cc(CCNc4ncnc5ccc(C#N)cc45)ccc3c2)CC1` [senexin b] (max 10 µM): the “area over the GR curve” value worked out at 0.0206 GR in assay [1] and 0.37 GR in assay [2].

On to `CN(C)C/C=C/C(=O)Nc1ccc(C(=O)Nc2cccc(Nc3ncc(Cl)c(-c4c[nH]c5ccccc45)n3)c2)cc1` [THZ1] (max 1 µM), for which the “area over the GR curve” value was found to be 0.374 GR in assay [1] and 0.506 GR in assay [2].

Regarding `C[C@@H]1COCCN1c1cc(C2([S@](C)(=N)=O)CC2)nc(-c2cc[nH]c3nccc2-3)n1` [AZD6738] (max 10 µM), the “area over the GR curve” value is 0.073 GR in assay [1] and 0.0536 GR in assay [2].

As for `C=CC(=O)Nc1ccc(C(=O)Nc2[nH]nc3c2CN(C(=O)N[C@H](CN(C)C)c2ccccc2)C3(C)C)cc1` [YKL-5-124] (max 10 µM), the “area over the GR curve” value amounted to 0.982 GR in assay [1] and 0.57 GR in assay [2].

With `CCCCOc1c(C(=O)c2c(F)cc(C)cc2F)c[nH]c2nncc1-2` (max 10 µM), the “area over the GR curve” value in assay [1] was determined as 0.423 GR; in assay [2], 0.691 GR.

Turning to `CN(C)C(=O)c1cc2cnc(Nc3ccc(N4CCNCC4)cn3)nc2n1C1CCCC1` [LEE011/Ribociclib] (max 10 µM), the “area over the GR curve” value in assay [1] and in assay [2] was 0.166 GR each time.

Take `CO[C@@H](C)Cn1c(=O)n(C)c2cnc3ccc(-c4cncc(C(C)(C)O)c4)cc3c21` (max 10 µM): the results for the “area over the GR curve” value in assay [1] and in assay [2] were 0.67 GR and 0.804 GR, respectively.

On to `CN(C)C/C=C/C(=O)Nc1ccc(C(=O)Nc2cccc(Nc3cc(-c4c[nH]c5ccccc45)ncn3)c2)cc1` [THZ-P1-2] (max 10 µM), for which the “area over the GR curve” value in assay [1] was 0.0927 GR; in assay [2] it was -0.0028 GR.

For the compound `CC(C)Nc1cc(-c2c[nH]c(C(=O)N[C@H](CO)c3cccc(Cl)c3)c2)c(Cl)cn1` [BVD523] (max 10 µM), the “area over the GR curve” value amounted to 0.266 GR in assay [1] and 0.0779 GR in assay [2].

In the case of `NC1(C(=O)N[C@@H](CCO)c2ccc(Cl)cc2)CCN(c2nc[nH]c3nccc2-3)CC1` [AZD5363] (max 10 µM), the figures for the “area over the GR curve” value in assay [1] and in assay [2] were 0.214 GR and 0.4 GR, respectively.

Regarding `O=C1NC(=NCc2cccs2)SC1=Cc1ccc2ncccc2c1` [R0-3306] (max 10 µM), the “area over the GR curve” value in assay [1] worked out at 0.0788 GR; in assay [2], 0.197 GR.

Turning to `CC(=O)c1c(C)c2cnc(Nc3ccc(N4CCN(CCOCCOCCOCCNC(=O)COc5cccc6c5C(=O)N(C5CCC(=O)NC5=O)C6=O)CC4)cn3)nc2n(C2CCCC2)c1=O` (centres undefined) [BSJ-03-123] (max 10 µM), the “area over the GR curve” value turned out to be 0.25 GR in assay [1] and 0.163 GR in assay [2].

Consider `CNC(=O)c1cccc(-c2ccc3c(N4CCOC[C@@H]4C)nc(N4CCOC[C@@H]4C)nc3n2)c1` [AZD2014] (max 10 µM), for which the “area over the GR curve” value in assay [1] amounted to 0.533 GR; in assay [2], 0.697 GR.

As to `COc1cc(N2CCN(C)CC2)ccc1Nc1ncc2c(n1)N(C)c1ccccc1C(=O)N2CC(F)(F)F` [FMF-03-146-1], the “area over the GR curve” value in assay [1] was 0.001 GR; in assay [2], -0.0165 GR.

Consider `COc1ccc2c(c1)[C@]1(C[C@H]1c1ccc3c(/C=C/c4ccc(CN5C[C@@H](C)O[C@@H](C)C5)cc4)n[nH]c3c1)C(=O)N2`, for which the entries for the “area over the GR curve” value in assay [1] and in assay [2] were 0.507 GR and 0.504 GR, respectively.

On to `C=CCn1c(=O)c2cnc(Nc3ccc(N4CCN(C)CC4)cc3)nc2n1-c1cccc(C(C)(C)O)n1` [AZD1775] (max 10 µM), for which the “area over the GR curve” value amounted to 0.136 GR in assay [1] and 0.455 GR in assay [2].
